pIC50: −log10 of the molar value.
Target: T1, Xanthine dehydrogenase/oxidase (Homo sapiens, UniProt P47989)
Experiment: Inhibition of xanthine oxidase (unknown origin) measured by spectrophotometric analysis

T1 sequence (P47989 whole entry): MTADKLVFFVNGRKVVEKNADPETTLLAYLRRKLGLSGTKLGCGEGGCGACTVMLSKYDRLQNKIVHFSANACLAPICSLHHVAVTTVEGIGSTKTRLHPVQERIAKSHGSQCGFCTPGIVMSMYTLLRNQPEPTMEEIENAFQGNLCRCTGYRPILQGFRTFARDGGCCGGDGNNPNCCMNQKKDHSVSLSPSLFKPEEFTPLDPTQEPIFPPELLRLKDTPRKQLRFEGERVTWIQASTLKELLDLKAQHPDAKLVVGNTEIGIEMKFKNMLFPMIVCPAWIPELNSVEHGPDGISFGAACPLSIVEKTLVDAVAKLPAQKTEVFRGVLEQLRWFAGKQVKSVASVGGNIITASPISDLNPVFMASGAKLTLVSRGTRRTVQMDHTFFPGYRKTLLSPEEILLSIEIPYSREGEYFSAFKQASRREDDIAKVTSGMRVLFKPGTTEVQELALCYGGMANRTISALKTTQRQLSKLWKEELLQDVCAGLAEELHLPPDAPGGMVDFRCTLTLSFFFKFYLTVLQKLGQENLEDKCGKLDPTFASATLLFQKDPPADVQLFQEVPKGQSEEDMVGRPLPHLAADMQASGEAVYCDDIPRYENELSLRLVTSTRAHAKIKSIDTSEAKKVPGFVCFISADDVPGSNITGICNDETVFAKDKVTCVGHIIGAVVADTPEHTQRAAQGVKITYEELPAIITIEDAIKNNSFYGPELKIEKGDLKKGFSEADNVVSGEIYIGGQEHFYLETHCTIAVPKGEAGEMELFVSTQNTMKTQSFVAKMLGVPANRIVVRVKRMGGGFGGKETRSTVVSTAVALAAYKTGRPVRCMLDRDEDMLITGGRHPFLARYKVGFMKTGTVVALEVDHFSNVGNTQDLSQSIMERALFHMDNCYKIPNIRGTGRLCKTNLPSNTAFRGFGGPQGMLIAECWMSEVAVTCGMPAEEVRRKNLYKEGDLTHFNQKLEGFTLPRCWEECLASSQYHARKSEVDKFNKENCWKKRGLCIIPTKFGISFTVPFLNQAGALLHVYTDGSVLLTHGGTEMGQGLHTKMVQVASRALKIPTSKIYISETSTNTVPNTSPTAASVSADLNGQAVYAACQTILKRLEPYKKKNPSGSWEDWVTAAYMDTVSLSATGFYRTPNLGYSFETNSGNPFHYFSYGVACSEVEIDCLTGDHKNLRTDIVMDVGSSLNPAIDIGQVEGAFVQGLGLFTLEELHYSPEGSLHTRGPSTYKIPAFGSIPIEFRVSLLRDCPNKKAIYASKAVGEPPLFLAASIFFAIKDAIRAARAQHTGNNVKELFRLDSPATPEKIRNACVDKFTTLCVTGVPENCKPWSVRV

| pIC50 | SMILES |
| --- | --- |
| 8.53 | Cc1nc(-c2ccc(OCC(C)C)c(C#N)c2)sc1C(=O)O [FEBUXOSTAT] |
| 5.99 | NC1=NC(=O)/C(=C/c2cccc(F)c2)S1 |

Target: T1, Xanthine dehydrogenase/oxidase
Experiment: Inhibition of xanthine oxidase (unknown origin) at 10 uM measured by spectrophotometric analysis relative to control

| inhibition at 10 µM | SMILES |
| --- | --- |
| < 40% | Cc1ccc(C(=O)Oc2cccc(/C=C3\SC(N)=NC3=O)c2)cc1 |
| 44.4% | COc1ccc(/C=C2\SC(=S)NC2=O)cc1OC |
| < 40% | NC1=NC(=O)/C(=C/c2cc(Br)cc(Br)c2OCc2ccc(Cl)cc2Cl)S1 |
| < 40% | O=C1N=C(S)S/C1=C/c1cc(Cl)ccc1O |
| < 40% | COc1cc(/C=C2/SC(S)=NC2=O)ccc1Cc1ccccc1Cl |
| < 40% | Cc1ccc(C(=O)Oc2ccc(Br)cc2/C=C2\SC(N)=NC2=O)cc1 |
| < 40% | Cc1ccc(Cl)c2c1NC(=O)/C2=C1/SC(N)=NC1=O |
| 91.5% | NC1=NC(=O)/C(=C/c2cccc(F)c2)S1 |
| < 40% | N=C1SCC(=O)N1c1ncc(OCc2ccc(Cl)cc2Cl)s1 |
| < 40% | COc1ccc(/C=C2/SC(N)=NC2=O)cc1 |

Target: T1, Xanthine dehydrogenase/oxidase
Experiment: Inhibition of xanthine oxidase (unknown origin) at 0.1 uM measured by spectrophotometric analysis relative to control

| inhibition at 0.1 µM | SMILES |
| --- | --- |
| 102% | Cc1nc(-c2ccc(OCC(C)C)c(C#N)c2)sc1C(=O)O [FEBUXOSTAT] |

Source: ChEMBL document CHEMBL5143568, “Identification of novel xanthine oxidase inhibitors via virtual screening with enhanced characterization of molybdopterin binding groups” (Eur J Med Chem, 2022)
